According to patent US20130123108A1, “ACTIVE SUBSTANCE COMPOSITION COMPRISING AT LEAST ONE NITROGEN ATOM-CONTAINING, HYPERBRANCHED POLYMER” (BASF SE, priority 2005, published 2013):
Like-named read-outs stand apart in the source and are kept apart here.

Key:
[1] = Redispersing of polymer/active substance compositions in buffer, general procedure 1; format: physicochemical; set-up: key: 1: unsatisfactory redispersing, sediment; 2: no ambiguous assessment possible; 3: complete redispersing with clouding (weak to opaque); 4: clear solution; details: phosphate buffer pH 6.8
Experimental: Each time 1 or 10% by weight solutions in N,N-dimethylformamide (DMF) of the hyperbranched polymer to be assessed and also 0.1% by weight solutions of the active substances, likewise in DMF, were provided. Active substance compositions were prepared by mixing in a Tecan pipetting robot with the use of 1 ml flat-bottomed glass vessels from HJ-Bioanalytik (96-well plates in the deep well format). Each time 50 μl of polymer and 500 μl of active substance solution were added to a vessel and the solvent was subsequently removed by drying for 24 hours in a vacuum-drying chamber at 70° C. and a pressure of less than 10 mbar. The test samples were subsequently redispersed by addition of 500 μl of buffer solution (phosphate buffer pH 6.8, 23.05 g of potassium dihydrogenphosphate, 23.30 g of disodium hydrogenphosphate, deionized water made up to 5000 ml) and subsequent shaking for two hours using an HP MTP shaker. The assessment was carried out by measuring the particle size using diffusion light scattering after a resting phase of 2 h.
1=unsatisfactory redispersing, sediment 2=no ambiguous assessment possible 3=complete redispersing with clouding (weak to opaque) 4=clear solution
Determination of the properties of aqueous active substance compositions according to general procedure 1. Use was made of bentazon at a polymer/active substance ratio of 1:1 and metazachlor at a polymer/active substance ratio of 10:1.

[2] = literature values, Table 1; cited from earlier work
[3] = Solubility from solid dispersion with hyperbranched polymer, general procedure 2; format: physicochemical; details: for solubility at 24 h: pH 6.8, aqueous with cosolvent or surfactant or cyclodextrin, thermodynamic from solid
Experimental: 0.5 g of the chosen polymer and 0.1 g of a compound to be dissolved in water were dissolved in approximately 20 ml of N,N-dimethylformamide (DMF). The mixture was stirred and subsequently freed from DMF. A solid dispersion of the chosen copolymer with the chosen compound to be dissolved was obtained. The solid dispersion was added to 100 ml of water (buffered to pH 6.8) and the mixture was stirred for 24 h. After filtration, solutions were obtained and their contents of the compound to be dissolved were determined using HPLC and a UV detector. The literature values for water solubilities of the chosen compounds and the wavelengths of the measurement by UV spectroscopy are listed in table 1:
Determination of the properties of aqueous active substance compositions according to general procedure 2.

[4] = literature values, Table 2; cited from earlier work
[5] = Solubility in supersaturated polymer solution, general procedure 3; format: physicochemical; details: phosphate buffer pH 7.0 with hyperbranched polymer, pH 7, aqueous with cosolvent or surfactant or cyclodextrin, thermodynamic from solid, 0.2 g piroxicam, 20 g phosphate buffer pH 7.0, UV spectroscopy
Experimental: Approximately 2 g of polymer were weighed out in a glass beaker. Subsequently, 0.2 g of piroxicam or 0.3 g of carbamazepine was each time weighed out into the charge in order to obtain a supersaturated solution. Subsequently, 20 g of phosphate buffer pH 7.0 were added. After filtration, solutions were obtained and their contents of the compound to be dissolved were determined by UV spectroscopy.
Determination of the properties of aqueous active substance compositions according to general procedure 3.

[6] = water buffered to pH 6.8 with hyperbranched polymer, 0.5 g polymer, 0.1 g compound, 100 ml water buffered to pH 6.8, stirred 24 h, HPLC/UV, read-out: Solubility in the presence of Polymer 5
[7] = water buffered to pH 6.8 with hyperbranched polymer, Solubility in the presence of Polymer 1, 0.5 g polymer, 0.1 g compound, 100 ml water buffered to pH 6.8, stirred 24 h, HPLC/UV

For `CC(C)N1C(=O)c2ccccc2NS1(=O)=O` [Bentazon], the Assessment ([1]; Polymer from example 1, polymer/active substance ratio 1:1) was 4 and the Assessment ([1]; Polymer from example 6, polymer/active substance ratio 1:1) was 4.
In the case of `NC(=O)N1c2ccccc2C=Cc2ccccc21` [Carbamazepine], the “Water solubility (without polymer)” value [2] is listed as 120 µg/mL, the solubility at 24 h [3, 6] is listed as 190 µg/mL and the solubility at 24 h [3, 7] is listed as 181 µg/mL. For the same molecule, the solubility at 24 h ([3]; water buffered to pH 6.8 with hyperbranched polymer, Solubility in the presence of Polymer 4, 0.5 g polymer, 0.1 g compound, 100 ml water buffered to pH 6.8, stirred 24 h, HPLC/UV) was 336 µg/mL.
In the case of `CCOC(=O)/C(Cl)=C/c1cc(N2C(=O)C3=C(CCCC3)C2=O)ccc1Cl` [Cinidon-ethyl], the “Water solubility (without polymer)” value [2] is given as 0.057 µg/mL and the “Solubility in the presence of Polymer 1” value ([3]; 0.5 g polymer, 0.1 g compound, 100 ml water buffered to pH 6.8, stirred 24 h, HPLC/UV) is given as 97 µg/mL.
Molecule `N#Cc1nn(-c2c(Cl)cc(C(F)(F)F)cc2Cl)c(N)c1[S+]([O-])C(F)(F)F` (centres unmarked) [Fipronil] has a solubility at 24 h ([3]; Solubility in the presence of Polymer 1) of 448 µg/mL.
For `Cc1cccc(C)c1N(Cn1cccn1)C(=O)CCl` [Metazachlor], the Assessment ([1]; Polymer from example 1, polymer/active substance ratio 10:1) was 3 and the Assessment ([1]; Polymer from example 6, polymer/active substance ratio 10:1) was 3.
In the case of `CN1C(C(=O)Nc2ccccn2)=C(O)c2ccccc2S1(=O)=O` [Piroxicam], the “Water solubility (without polymer)” value [2] is given as 200 µg/mL, the solubility at 24 h [3, 6] is given as 1110 µg/mL and the solubility at 24 h [3, 7] is given as 1020 µg/mL. The “Water solubility (without polymer)” value [4] was 420 µg/mL, the solubility ([5]; Solubility in the presence of Polymer 1, approx. 2 g polymer) was 9200 µg/mL and the solubility ([5]; approx. 2 g polymer, read-out: Solubility in the presence of Polymer 3) was 5300 µg/mL.
